Experimental data taken from patent US20230256217A1, “OZONE GENERATION APPARATUSES AND METHODS OF TREATING WOUNDS” (priority 2020, published 2023).

What was measured:
[1] = tested on: S. epidermidis NRS101; test: Antibacterial test of ozone applied by the patch; type: cell-based; conditions: six hours of ozone exposure through the patch
Protocol: (§1) The antibacterial properties of the patch 10 were assessed by exposing multiple strains of antibiotic resistant bacteria (both Gram-negative and Gram-positive) to the ozone applied by the patch 10 for six hours, and measuring the living concentration every one to two hours. Experiments using two common strains of antibiotic resistant bacteria common in skin infections, S. epidermidis NRS101 and P. aeruginosa ATCC 15442, indicated positive results. […] FIGS. 8A through 8C show bacteria stain images of the samples before and after treatment, and a control. At first, all of the bacteria were stained green, and then any dead bacteria were re-stained with the red. These images show qualitatively that the bacteria before the treatment are living, and afterward are mostly dead. […] Additionally, results for the Gram-negative bacteria, P. aeruginosa, indicated even better results. […] FIGS. 8D, 8E, and 8F show similar stain images for P. aeruginosa.

[2] = tested on: P. aeruginosa ATCC 15442; test: Antibacterial test of ozone applied by the patch; type: cell-based; conditions: initial 5 log CFU/mL concentration; within six hours of treatment
Protocol: as §1

[3] = tested on: normal mammary fibroblasts HMS-32 cells; test: Cytotoxicity of ozone treatment on human cells; type: cell-based
Protocol: FIGS. 10A through 10D include images of normal mammary fibroblasts HMS-32 cells initial (FIG. 10A), after six hours of ozone treatment (FIG. 10B), 24 hours after ozone treatment (FIG. 10C), and 48 hours after ozone treatment (FIG. 10D). Scale bar 10 micrometers. FIG. 10E contains a graph showing percentage of apoptotic cells at each time in a control group and an experimental group. Data was collected from triplicate samples, with error bars indicating standard deviation.
The possibility for the use of ozone to treat antibiotic resistant infections is also dependent on the apparatus not damaging the normal skin cells. Cytotoxic experimentation was conducted to determine how the ozone treatment would interact with human skin cells (FIG. 10A through 10D). […] Ozone treatment has been used to increase the healing process for chronic wounds, so there is good reason to believe a high level of biocompatibility exists. […] Similar to the stain imaging done for the antimicrobial results, FIGS. 10A through 10D are stain images that show the health of the cells at each time point. In each cell, F-actin was stained green, and the nuclei were stained blue. These images support finding minimal cytotoxicity because there is no noticeable difference in the images over time. […]

[4] = tested on: P. aeruginosa; test: Secondary study: pristine vs biofluid-preconditioned patch, bacteria spotted on filter paper; type: cell-based; conditions: ozone for six hours
Protocol: A secondary study was also conducted on P. aeruginosa to verify that prolonged contact to a wound environment would not change antimicrobial properties. In each case, 100 μL of P. aeruginosa was diluted into 1 mL of PBS and spotted onto filter paper. Each experimental trial was exposed to the ozone for six hours. The first test was conducted through an untreated patch 10, while the second was conducted using a patch 10 that had been preconditioned by resting on a damp sponge filled with mammalian cell culture media overnight. FIGS. 9A and 9B report the results of the tests when compared to the controls, which were prepared in the same way, but exposed to no ozone treatment.

[5] = tested on: human keratinocyte cells; test: Biocompatibility of adjunct therapy; type: cell-based; conditions: six hour, 100 ppm ozone; nanofiber solution with or without antibiotic
Protocol: By studying the biocompatibility, it was determined that the treatment system was both effective and safe to use. To test this, human keratinocyte cells were either exposed to the ozone therapy (with or without antibiotics) or left as a control. In each case, cell samples were exposed to test inhibitory concentration of the nanofiber solution containing either linezolid, vancomycin, or no antibiotic. Tests were conducted under the same six hour and 100 ppm ozone parameters as the antibacterial studies.

[6] = tested on: S. epidermidis; conditions: cited from earlier work
[7] = tested on: P. aeruginosa; test: Adjunct ozone and antibiotic therapy antibacterial test; type: cell-based; conditions: ozone 100 ppm (4 mg/hr) for six hours; antibiotic 20 μg/mL; 37° C.
Protocol: To test the antibacterial effects of ozone in combination with antibiotics, a P. aeruginosa culture was inoculated in a solution of […] soy broth (TSB) and incubated overnight. A sample of the mature culture was diluted in new TSB at 1:50. The new culture media was then pipetted into test wells in triplicate at 1:10 with either linezolid or vancomycin solution in phosphate buffered saline (PBS) at 200 μg/mL. […] The bacterial samples were subject to the combination treatment of 100 ppm (4 mg/hr) ozone with vancomycin at 20 μg/mL and linezolid at 20 μg/mL. During testing, the test samples were kept at 37° C. At 2, 4, and six hours, 20 μL samples were withdrawn from the designated set of wells and plated on TSB agar plates. Bacterial colonies were counted after being incubated overnight at 37°. Experimental adjunct therapy samples were compared against treatment of only ozone, and control cultures exposed to antibiotics without the ozone. Because both antibiotics in the test (linezolid and vancomycin) are designed to be effective against G+ve bacteria, it was expected that neither will show any effect against the bacterial strain unless combined with ozone. Additionally, treatment was administered to in vitro colonies of P. aeruginosa under ideal conditions for bacterial growth.

[8] = tested on: P. aeruginosa; conditions: cited from earlier work

Question: Which results are given for `O=[O+][O-]` [ozone]?
Answer: log10 reduction CFU/mL [1]: 0.8 log10 reduction CFU/mL; reduction from the starting inoculum [1]: greater than 70%; eradication of bacteria [2]: completely eradicate; increase in cell apoptosis ([3]; after six, 24 and 48 hours): no significant increase in cell apaptosis; increase in cell apoptosis ([3]; over 48 hours after six hours of ozone exposure): 6.5%; elimination of bacteria ([4]; patch preconditioned overnight on sponge with mammalian cell culture media): complete elimination of bacteria; elimination of bacteria ([4]; untreated (pristine) patch): complete elimination of bacteria; percent of cell viability [5]: did not significantly change

Question: With `Cc1onc(-c2ccccc2)c1C(=O)N[C@@H]1C(=O)N2[C@@H]1SC(C)(C)[C@@H]2C(=O)O` [oxacillin] as the compound, how does the “known effectiveness / resistance” value [6] read?
Answer: resisted

Question: For `CN[C@H](CC(C)C)C(=O)N[C@H]1C(=O)N[C@@H](CC(N)=O)C(=O)N[C@H]2C(=O)N[C@H]3C(=O)N[C@H](C(=O)N[C@H](C(=O)O)c4cc(O)cc(O)c4-c4cc3ccc4O)[C@H](O)c3ccc(c(Cl)c3)Oc3cc2cc(c3O[C@@H]2O[C@H](CO)[C@@H](O)[C@H](O)[C@H]2O[C@H]2C[C@](C)(N)[C@H](O)[C@H](C)O2)Oc2ccc(cc2Cl)[C@H]1O` [vancomycin], which “known effectiveness / resistance” value [6] is on record?
Answer: known to be effective

Question: What about the “bacterial population (CFU/mL) compared to initial” value [7] of the same compound?
Answer: no impact on bacteria growth

Question: With `CC(=O)NC[C@H]1CN(c2ccc(N3CCOCC3)c(F)c2)C(=O)O1` [linezolid] as the compound, how does the “bacterial population (CFU/mL) compared to initial” value [7] read?
Answer: did not inhibit the growth of the bacteria at all

Question: For `NC[C@H]1O[C@H](O[C@H]2[C@H](O)[C@@H](O[C@H]3O[C@H](CO)[C@@H](O)[C@H](N)[C@H]3O)[C@H](N)C[C@@H]2N)[C@H](N)C[C@@H]1O` [tobramycin], which “known effectiveness / resistance” value [8] is on record?
Answer: resisted

Question: For colistin, which “known effectiveness / resistance” value [8] is on record?
Answer: known to be effective

Question: For `C[C@@H](O)[C@H]1C(=O)N2C(C(=O)O)=C(S[C@@H]3CN[C@H](C(=O)N(C)C)C3)[C@H](C)[C@H]12` [meropenem], which “known effectiveness / resistance” value [8] is on record?
Answer: known to be effective

Question: Which “known effectiveness / resistance” value [6] does the source give for penicillin here?
Answer: resisted

Question: And the “known effectiveness / resistance” value [8]?
Answer: resisted
